In patent US10993923B2, “Method for ameliorating fibrosis using 1-[4-chloro-3-(trifluoromethyl)phenyl]-3-[3-(4-cyanophenoxy)phenyl]urea” (priority 2016, dated 2021):

Columns and labels:
[1] = tested on: bleomycin-induced pulmonary fibrosis in mice; test: Bleomycin-induced pulmonary fibrosis in mice; format: in vivo
Method: Male C57BL/6J mice (6-8 weeks of age) were obtained from the National Laboratory Animal Center (Taipei, Taiwan). All experimental procedures using these mice were performed according to protocols approved by the Institutional Laboratory Animal Care and Use Committee of Cardinal Tien Hospital. Each mouse was housed in cages (IVC; individual ventilation cage), and given daily photoperiod for 12 hours. Room temperature was maintained at 22-25° C., and humidity was maintained at 60 to 70%. Ventilation rate was remained at 16-18 times/hour. Food and drinking water (Altromin 1326 mice feed, Altromin, Germany) was freely given. All operations were executed in accordance with the standards of animal experimental animal operation of law. Management and feeding of animals were in compliant with guidance for care and use of laboratory (NRC 1996) rule approach implementation.
Pulmonary fibrosis was induced using bleomycin sulfate in male C57BL/6J mice (FIG. 1). The mice were intraperitoneally injected (IP) under anesthesia with Avertin (240 mg/Kg). On day 0 (n=20), a single dose of bleomycin (BLM) (1 mg=1000 IU, clinical level, Bleomycine Bellon, Sanofi-Aventis, France) was received in the mice (3.5 mg/kg) via intranasal instillation. The mice in the control group (n=10) were given saline only. On day 14 after intranasal BLM instillation, BLM treated mice were randomized into two groups receiving vehicle or 1-[4-chloro-3-(trifluoromethyl)phenyl]-3-[3-(4-cyanophenoxy)phenyl]urea until the end of the experiment. From day 14 to day 28, mice were administered intraperitoneally with 7.5 mg/kg/day of 1-[4-chloro-3-(trifluoromethyl)phenyl]-3-[3-(4-cyanophenoxy)phenyl]urea daily at a dose of 10 mL/kg body weight. The experimental time was 28 days and the 1-[4-chloro-3-(trifluoromethyl)phenyl]-3-[3-(4-cyanophenoxy)phenyl]urea compound was administered within 14 to 28 days.
The paraffin embedded tissue array blocks were cut into 4-μm-thick sections for H&E staining. For each case, carcinoma type, cell differentiation, growth pattern, tumor cell nuclear morphology, metaplasia, calcification, necrosis, mitosis count, invasion status and other specific differentiations were re-checked by two pathologists Immunohistochemical (IHC) staining was performed using a Ventana BenchMark XT automated stainer (Ventana, Tucson, Ariz.). Briefly, 4-μm-thick sections were cut consecutively from formalin-fixed, paraffin-embedded tissue. These sections were then mounted on silanized slides and allowed to dry overnight at 37° C. After deparaffinization and rehydration, the slides were incubated with 3% hydrogen peroxide solution for 5 minutes. After being washed with the supplied buffer, the tissue sections were repaired for 40 minutes with ethylenediamine tetraacetic acid.
Hydroxyproline analysis was performed using a hydroxyproline test kit following the manufacturer's instructions (Cell BioLabs, Inc., USA). Lung tissue was hydrolyzed in 12N HCl at 120° C. for 3 hours, and then washed and suspended in H2O. The tissue suspension was then mixed with chloramine-T at room temperature for 30 minutes. Then Ehrlich's reagent was added and reacted at 60° C. for 90 minutes. After that, the absorbance at 540 nm was measured.
Mice lung collagen was measured in lung homogenate using a Sircol assay (Biocolor, UK) following the manufacturer's instructions. Briefly, lung tissue homogenates were mixed with Sircol dye and centrifuged. The precipitate was resuspended in NaOH and the absorbance at 550 nm was measured. The absorbance obtained is directly proportional to the concentration of the recently synthesized collagen.
Whole-cell extracts were obtained via RIPA buffer (Millipore, USA) and protein concentrations were quantified via a BCA protein assay kit (Thermo Fisher Scientific, USA). 20 or 25 μg of protein was added to various percentages of SDS-sodium dodecyl sulfate-acrylamide gel and blotted onto a polyvinylidene fluoride (PVDF) membrane. […]

[2] = tested on: p-STAT3 in mouse fibroblasts (NIH3T3 cell line); test: Western blot of p-STAT3 in NIH3T3 fibroblasts; format: cell-based; conditions: FIG. 7B
Method: Murine NIH3T3 fibroblasts and human lung epithelial cells (A549 cells) were purchased from the Bioresource Collection and Research Center (Hsinchu, Taiwan). Cells were cultured in Dulbecco's modified eagle medium (DMEM) containing 10% fetal bovine serum (FBS), 100 μg/mL penicillin, 100 μg/mL streptomycin. Cells were cultured at 37° C. in a humidified atmosphere of 5% CO2 and passaged every 4 to 5 days at 1:4 ratios.
Whole-cell extracts were obtained via RIPA buffer (Millipore, USA) and protein concentrations were quantified via a BCA protein assay kit (Thermo Fisher Scientific, USA). 20 or 25 μg of protein was added to various percentages of SDS-sodium dodecyl sulfate-acrylamide gel and blotted onto a polyvinylidene fluoride (PVDF) membrane. The membrane was then reacted with a primary antibody; after extensive washing, the membrane was reacted with a […] containing a second antibody. Proteins were detected by Immobilon Western Chemiluminescent HRP substrate (Millipore, USA) or ECL detection system (UVP Corporation, USA).
Antibodies for immunoblotting techniques such as anti-E-cadherin, anti-Fibronectin, anti-N-cadherin were purchased from Abcam (UK). […]

[3] = tested on: CCl4-induced hepatic fibrosis in mice; test: CCl4-induced hepatic fibrosis mice regression model; format: in vivo, male C57BL/6J mice; conditions: 10 mg/kg for 4 weeks without CCl4 after 8 weeks CCl4 induction
From the text: In male C57BL/6J mice, liver fibrosis was induced by carbon tetrachloride (CCl4). The mice were given peritoneal injection of carbon tetrachloride for 4 or 8 weeks every two weeks.
(§1) The mice liver samples were stored in 10% formaldehyde, dehydrated with gradient alcohol, embedded in paraffin blocks, sectioned to a thickness of 3 μm, placed on glass slides, and stained with Picrosirius Red Stain kit (ScyTek, USA), following the manufacturer's instructions. The severity of liver fibrosis was graded according to the Ishak fibrosis score. Quantitative collagen-positive area (qCPA) was determined by densitometry via ImageJ software. Hepatic hydroxyproline concentrations were measured by the hydroxyproline assay kit (Biovision, USA), following the manufacturer's instructions Immunohistochemistry was performed by the Leica BOND-MAX automatic chromatograph (Leica Biosystems, Germany), following the manufacturer's instructions.

[4] = tested on: BDL-induced cholestasis fibrosis in mice; test: Bile duct ligation (BDL) fibrosis mice prevention model; format: in vivo, Balb/C mice; conditions: 10 mg/kg from day 1 until sacrifice on day 14 of BDL; FIG. 13A, 13B
From the text: In the bile duct ligation (BDL) mouse model, the common bile duct of Balb/C mice was double-ligated and excised. Mice were fed daily with vehicle or 1-[4-chloro-3-(trifluoromethyl)phenyl]-3-[3-(4-cyanophenoxy)phenyl]urea on day 1 or day 8 until they were sacrificed on day 14.
as §1

[5] = Western blot, bleomycin model after treatment, FIG. 6

`N#Cc1ccc(Oc2cccc(NC(=O)Nc3ccc(Cl)c(C(F)(F)F)c3)c2)cc1` [1-[4-chloro-3-(trifluoromethyl)phenyl]-3-[3-(4-cyanophenoxy)phenyl]urea] was tested, and the “tolerability (drug-related adverse events)” value ([1]; 7.5 mg/kg dose, daily, day 14 to day 28 after bleomycin) was “well tolerated”, the “fibrin deposition (Masson's trichrome staining positive area)” value ([1]; 7.5 mg/kg/day, day 14 to 28, FIG. 3) was “significantly reduced” and the “pathological changes of lung sections (hematoxylin-eosin staining)” value ([1]; 7.5 mg/kg/day, day 14 to 28, versus BLM group, FIG. 2) was “significantly improved”. The “collagen content of mice lung” value ([1]; Sircol assay, 7.5 mg/kg/day, day 14 to 28, FIG. 5) was “improved the accumulation of collagen”, the P-STAT3 [1, 5] was “decreased” and the amount of fibronectin [1, 5] was “decreased”. For the same compound, the “expression level of E-cadherin” value [1, 5] was “increased”, the “decrease of hydroxyproline (Hyp) content compared with the BLM group” value ([1]; lung tissue, 7.5 mg/kg/day, day 14 to 28, FIG. 4) was “about 22%” and the “expression level of p-STAT3” value [2] was “reduced”. For the same compound, the “qCPA (quantitative collagen-positive area)” value ([3]; FIG. 12G) was “significantly decreased”, the Ishak fibrosis score ([3]; FIG. 12H) was “significantly decreased” and the “quantitative collagen-positive area (qCPA)” value [4] was “significantly reduced”.
